Key:
TRβ = target: T1, TRβ (Homo sapiens, UniProt P10828); experiment: LanthaScreen TR-FRET Thyroid Receptor beta Coactivator Assay (in vitro binding activity); conditions: TR beta-LBD
T1 construct: 5 μL of 4×TR beta/alfa-LBD; purchased Invitrogen PV4686
T1 sequence (P10828 217-461 limits assumed): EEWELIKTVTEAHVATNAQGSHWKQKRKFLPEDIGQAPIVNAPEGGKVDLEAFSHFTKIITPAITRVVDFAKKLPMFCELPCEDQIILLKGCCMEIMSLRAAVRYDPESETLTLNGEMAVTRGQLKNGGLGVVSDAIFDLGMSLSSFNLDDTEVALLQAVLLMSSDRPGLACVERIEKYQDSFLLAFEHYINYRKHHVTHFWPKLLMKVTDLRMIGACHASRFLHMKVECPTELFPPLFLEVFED
Procedure: (§1) 2. Detection of the Binding Activity of the Compound of the Present Invention to TRα or TRβ In Vitro
(§2) Test Materials • LanthaScreen TR-FRET Thyroid Receptor beta Coactivator Assay kit was purchased from Invitrogen, Cat. No. PV4686; • LanthaScreen TR-FRET Thyroid Receptor alfa Coactivator Assay kit was purchased from Invitrogen, Cat. No. PV4687.
(§3) The method was experimented with LanthaScreen TR-FRET Thyroid Receptor beta/alfa Coactivator Assay kit. The test compound was dissolved in DMSO and diluted 3 times to a total of 10 concentrations, and then diluted with TR-FRET Coregulator Buffer C in the kit to form a solution containing 2% DMSO, 10 μL of the solution containing 2% DMSO was taken into a 384-well plate, then 5 μL of 4×TR beta/alfa-LBD, 5 μL of a mixture containing 0.4 μM fluorescein-SRC2-2 and 8 nM Tb anti-GST antibody were added into each well, mixed thoroughly, and incubated at room temperature for 1 h in the dark. After 1 h, BMG LABTECH's PHERAstar FSX microplate reader was used to read the fluorescence value (RFU) at […]. The TR-FRET ratio was calculated by dividing the emission signal at 520 nm by the emission signal at 495 nm. Graph Pad Prism 5 software was used to draw the curve and calculate the EC50 value. The in vitro binding activity test results of some of the compounds of the examples of the present invention are shown in Table 1 below.

TRα = target: T2, TRα (Homo sapiens, UniProt P10827); experiment: LanthaScreen TR-FRET Thyroid Receptor alfa Coactivator Assay (in vitro binding activity); conditions: TR alfa-LBD
T2 construct: 5 μL of 4×TR beta/alfa-LBD; purchased Invitrogen PV4687
Procedure: as §1, §2, §3

T2 sequence (P10827 163-410 isoform P10827-2 limits assumed, other chains not shown): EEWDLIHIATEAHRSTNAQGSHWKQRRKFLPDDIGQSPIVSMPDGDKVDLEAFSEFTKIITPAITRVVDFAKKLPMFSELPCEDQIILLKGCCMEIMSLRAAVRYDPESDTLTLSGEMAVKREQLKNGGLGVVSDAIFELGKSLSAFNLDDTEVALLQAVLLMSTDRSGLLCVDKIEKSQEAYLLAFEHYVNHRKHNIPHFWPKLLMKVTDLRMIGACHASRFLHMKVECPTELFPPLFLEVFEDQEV

Structure (SMILES) | EC50 (TRβ) | EC50 (TRα)
O=C1c2ccc(Oc3c(Cl)cc(-n4ncc(=O)[nH]c4=O)cc3Cl)cc2CCN1c1ncccn1 [Example 50, 2-(3,5-dichloro-4-((1-oxo-2-(pyrimidin-2-yl)-1,2,3,4-tetrahydroisoquinolin-6-yl)oxy)phenyl)-1,2,4-triazine-3,5(2H,4H)-dione] | 0.12 µM | 0.274 µM
O=C1c2ccc(Oc3c(Cl)cc(-n4ncc(=O)[nH]c4=O)cc3Cl)cc2CCN1Cc1cc(F)cc(F)c1 [Example 32, 2-(3,5-dichloro-4-((2-(3,5-difluorobenzyl)-1-oxo-1,2,3,4-tetrahydroisoquinolin-6-yl)oxy)phenyl)-1,2,4-triazine-3,5(2H,4H)-dione] | 0.0046 µM | 0.181 µM
O=C1c2ccc(Oc3c(Cl)cc(-n4ncc(=O)[nH]c4=O)cc3Cl)cc2CCN1Cc1ccccc1 [Example 22, 2-(4-((2-benzyl-1-oxo-1,2,3,4-tetrahydroisoquinolin-6-yl)oxy)-3,5-dichlorophenyl)-1,2,4-triazine-3,5(2H,4H)-dione] | 0.011 µM | 0.156 µM
N#Cc1nn(-c2cc(Cl)c(Oc3ccc4c(=O)[nH]ccc4c3)c(Cl)c2)c(=O)[nH]c1=O [Example 19, 2-(3,5-Dichloro-4-((1-oxo-1,2-dihydroisoquinolin-6-yl)oxy)phenyl)-3,5-dioxo-2,3,4,5-tetrahydro-1,2,4-triazine-6-carbonitrile] | 0.501 µM | > 100 µM
COc1cccc(CN2CCc3cc(Oc4c(Cl)cc(-n5ncc(=O)[nH]c5=O)cc4Cl)ccc3C2=O)c1 [Example 36, 2-(3,5-dichloro-4-((2-(3-methoxybenzyl)-1-oxo-1,2,3,4-tetrahydroisoquinolin-6-yl)oxy)phenyl)-1,2,4-triazine-3,5(2H,4H)-dione] | < 0.0046 µM | 0.079 µM
O=C1NCCc2cc(Oc3c(Cl)cc(-n4ncc(=O)[nH]c4=O)cc3Cl)ccc21 [Example 17, 2-(3,5-Dichloro-4-((1-oxo-1,2,3,4-tetrahydroisoquinolin-6-yl)oxy)phenyl)-1,2,4-triazine-3,5(2H,4H)-dione] | 0.034 µM | 0.311 µM
Cc1ccc(F)cc1CN1CCc2cc(Oc3c(Cl)cc(-n4ncc(=O)[nH]c4=O)cc3Cl)ccc2C1=O [Example 40, 2-(3,5-dichloro-4-((2-(5-fluoro-2-methylbenzyl)-1-oxo-1,2,3,4-tetrahydroisoquinolin-6-yl)oxy)phenyl)-1,2,4-triazine-3,5(2H,4H)-dione] | < 0.0046 µM | 0.179 µM
CC(C)OCN1CCc2cc(Oc3c(Cl)cc(-n4nc(C#N)c(=O)[nH]c4=O)cc3Cl)ccc2C1=O [Example 13, 2-(3,5-Dichloro-4-((2-(isopropoxymethyl)-1-oxo-1,2,3,4-tetrahydroisoquinolin-6-yl)oxy)phenyl)-3,5-dioxo-2,3,4,5-tetrahydro-1,2,4-triazine-6-carbonitrile] | 0.013 µM | 0.073 µM
CCOC(C)N1CCc2cc(Oc3c(Cl)cc(-n4nc(C#N)c(=O)[nH]c4=O)cc3Cl)ccc2C1=O (centres unmarked) [Example 16, 2-(3,5-dichloro-4-((2-(1-ethoxyethyl)-1-oxo-1,2,3,4-tetrahydroisoquinolin-yl)oxy)phenyl)-3,5-dioxo-2,3,4,5-tetrahydro-1,2,4-triazine-6-carbonitrile] | 0.022 µM | 0.211 µM

The next lines start with the values.

EC50 (TRβ) | EC50 (TRα) | Structure (SMILES)
0.026 µM | 0.29 µM | COCN1CCc2cc(Oc3c(Cl)cc(-n4nc(C#N)c(=O)[nH]c4=O)cc3Cl)ccc2C1=O [Example 3, 2-(3,5-dichloro-4-((2-(methoxymethyl)-1-oxo-1,2,3,4-tetrahydroisoquinolin-6-yl)oxy)phenyl)-3,5-dioxo-2,3,4,5-tetrahydro-1,2,4-triazine-6-carbonitrile]
0.065 µM | > 100 µM | N#Cc1nn(-c2cc(Cl)c(Oc3ccc4c(c3)CCN(Cc3ccc(F)c(F)c3)C4=O)c(Cl)c2)c(=O)[nH]c1=O [Example 30d, 2-(3,5-dichloro-4-((2-(3,4-difluorobenzyl)-1-oxo-1,2,3,4-tetrahydroisoquinolin-6-yl)oxy)phenyl)-3,5-dioxo-2,3,4,5-tetrahydro-1,2,4-triazine-6-carbonitrile]
0.034 µM | > 100 µM | N#Cc1nn(-c2cc(Cl)c(Oc3ccc4c(c3)CCN(Cc3cccc(F)c3)C4=O)c(Cl)c2)c(=O)[nH]c1=O [Example 31d, 2-(3,5-dichloro-4-((2-(3-fluorobenzyl)-1-oxo-1,2,3,4-tetrahydroisoquinolin-6-yl)oxy)phenyl)-3,5-dioxo-2,3,4,5-tetrahydro-1,2,4-triazine-6-carbonitrile]
0.08 µM | > 100 µM | N#Cc1nn(-c2cc(Cl)c(Oc3ccc4c(c3)CCN(Cc3ccc(F)c(Cl)c3)C4=O)c(Cl)c2)c(=O)[nH]c1=O [Example 35d, 2-(3,5-dichloro-4-((2-(3-chloro-4-fluorobenzyl)-1-oxo-1,2,3,4-tetrahydroisoquinolin-6-yl)oxy)phenyl)-3,5-dioxo-2,3,4,5-tetrahydro-1,2,4-triazine-6-carbonitrile]
0.049 µM | 0.206 µM | COCCN1CCc2cc(Oc3c(Cl)cc(-n4nc(C#N)c(=O)[nH]c4=O)cc3Cl)ccc2C1=O [Example 10, 2-(3,5-Dichloro-4-((2-(2-methoxyethyl)-1-oxo-1,2,3,4-tetrahydroisoquinolin-6-yl)oxy)phenyl)-3,5-dioxo-2,3,4,5-tetrahydro-1,2,4-triazine-6-carbonitrile]
< 0.0046 µM | < 0.046 µM | N#Cc1nn(-c2cc(Cl)c(Oc3ccc4c(c3)CCN(CC3CC3)C4=O)c(Cl)c2)c(=O)[nH]c1=O [Example 38, 2-(3,5-dichloro-4-((2-(cyclopropylmethyl)-1-oxo-1,2,3,4-tetrahydroisoquinolin-6-yl)oxy)phenyl)-3,5-dioxo-2,3,4,5-tetrahydro-1,2,4-triazine-6-carbonitrile]
0.368 µM | > 100 µM | Cc1ccc(CN2CCc3cc(Oc4c(Cl)cc(-n5nc(C#N)c(=O)[nH]c5=O)cc4Cl)ccc3C2=O)cc1 [Example 21d, 2-(3,5-dichloro-4-((2-(4-methylbenzyl)-1-oxo-1,2,3,4-tetrahydroisoquinolin-6-yl)oxy)phenyl)-3,5-dioxo-2,3,4,5-tetrahydro-1,2,4-triazine-6-carbonitrile]
0.534 µM | > 100 µM | N#Cc1nn(-c2cc(Cl)c(Oc3ccc4c(c3)CCN(Cc3ccc(F)cc3)C4=O)c(Cl)c2)c(=O)[nH]c1=O [Example 20d, 2-(3,5-dichloro-4-((2-(4-fluorobenzyl)-1-oxo-1,2,3,4-tetrahydroisoquinolin-6-yl)oxy)phenyl)-3,5-dioxo-2,3,4,5-tetrahydro-1,2,4-triazine-6-carbonitrile]
0.14 µM | > 100 µM | Cc1ccc(N2CCc3cc(Oc4c(Cl)cc(-n5nc(C#N)c(=O)[nH]c5=O)cc4Cl)ccc3C2=O)cc1 [Example 27, 2-(3,5-dichloro-4-((1-oxo-2-(p-tolyl)-1,2,3,4-tetrahydroisoquinolin-6-yl)oxy)phenyl)-3,5-dioxo-2,3,4,5-tetrahydro-1,2,4-triazine-6-carbonitrile]
0.214 µM | > 100 µM | N#Cc1nn(-c2cc(Cl)c(Oc3ccc4c(c3)CCN(c3ccccn3)C4=O)c(Cl)c2)c(=O)[nH]c1=O [Example 47f, 2-(3,5-dichloro-4-((1-oxo-2-(pyridin-2-yl)-1,2,3,4-tetrahydroisoquinolin-6-yl)oxy)phenyl)-3,5-dioxo-2,3,4,5-tetrahydro-1,2,4-triazine-6-carbonitrile]
